Test results taken from ChEMBL document CHEMBL1125524, “Adenosine A1 antagonists. 2. Structure-activity relationships on diuretic activities and protective effects against acute renal failure” (J Med Chem, 1992).

What was measured:
Rattus norvegicus [1] = assay: Serum creatinine concentration measured after intraperitoneal administration of 1 mg/kg of compound to rats(vehicle 4.09+/-0.39); type: functional
Rattus norvegicus [2] = assay: Serum creatinine concentration measured after intraperitoneal administration of 1 mg/kg of compound to rats(vehicle 5.08+/-0.14); type: functional
Rattus norvegicus [3] = assay: Serum creatinine concentration measured after intraperitoneal administration of 1 mg/kg of compound to rats(vehicle 6.90+/-0.2); type: functional
Rattus norvegicus [4] = assay: Effect on urinary excretion potassium and sodium after oral administration of 0.1 mg/kg to rats(potassium and sodium excretion in control rat is 0.179+/-0.038); type: functional, Urine
Rattus norvegicus [5] = assay: Ratio of urinary excretion value (urinary volume) in treated rats to that in control rats, at a peroral dose of 0.1 mg/Kg; type: functional, Urine
Rattus norvegicus [6] = assay: Ratio of urinary excretion value (urinary volume) in treated rats to that in control rats, at a peroral dose of 1.6 mg/Kg; type: functional, Urine
Rattus norvegicus [7] = assay: Urea nitrogen concentration measured after intraperitoneal administration of 1 mg/kg of compound to rats(vehicle 165.3+/-4); type: functional
Rattus norvegicus [8] = assay: Urea nitrogen concentration measured after intraperitoneal administration of 1 mg/kg of compound to rats(vehicle 171.3+/-6.4); type: functional
Rattus norvegicus [9] = assay: Effect on urinary excretion potassium and sodium after oral administration of 0.01 mg/kg to rats(potassium and sodium excretion in control rat is 0.191+/-0.020); type: functional, Urine
Rattus norvegicus [10] = assay: Ratio of sodium ion/potassium ion concentration in treated rats to that in control rats, at a peroral dose of 0.01 mg/Kg; type: functional
Rattus norvegicus [11] = assay: Ratio of sodium ion/potassium ion concentration in treated rats to that in control rats, at a peroral dose of 0.1 mg/Kg; type: functional
Rattus norvegicus [12] = assay: Ratio of sodium ion/potassium ion concentration in treated rats to that in control rats, at a peroral dose of 1.6 mg/Kg; type: functional
Rattus norvegicus [13] = assay: Ratio of urinary excretion value (Na+ concentration) in treated rats to that in control rats, at a peroral dose of 0.01 mg/Kg; type: functional, Urine
Rattus norvegicus [14] = assay: Ratio of urinary excretion value (Na+ concentration) in treated rats to that in control rats, at a peroral dose of 0.1 mg/Kg; type: functional, Urine
Rattus norvegicus [15] = assay: Ratio of urinary excretion value (Na+ concentration) in treated rats to that in control rats, at a peroral dose of 1.6 mg/Kg; type: functional, Urine
Rattus norvegicus [16] = assay: Ratio of urinary excretion value (urinary volume) in treated rats to that in control rats, at a peroral dose of 0.01 mg/Kg; type: functional, Urine
Rattus norvegicus [17] = assay: Effect on urinary excretion potassium and sodium after oral administration of 1.6 mg/kg to rats(potassium and sodium excretion in control rat is 0.173+/-0.015); type: functional, Urine
Rattus norvegicus [18] = assay: Oral diuretic activity was measured after oral administration of 1.6 mg/kg to rats(control volume is 0.93+/-0.03); type: functional, Urine
Rattus norvegicus [19] = assay: Oral diuretic activity was measured after oral administration of 0.01 mg/kg to rats(control volume is 1.15+/-0.17); type: functional, Urine
Rattus norvegicus [20] = assay: Oral diuretic activity was measured after oral administration of 0.1 mg/kg to rats(control volume is 0.75+/-0.12); type: functional, Urine
Rattus norvegicus [21] = assay: Urea nitrogen concentration measured after intraperitoneal administration of 1 mg/kg of compound to rats(vehicle 143.9+/-12.2); type: functional
Adenosine A2 receptor = Adenosine A2 receptor (Rattus norvegicus, UniProt P29276+P30543)

Question: For `CC(C)Cn1c(=O)n(C)c(=O)c2[nH]c(C(C3CC3)C3CC3)nc21`, which Cr (Rattus norvegicus [1]) is on record?
Answer: 4.28 mg/dL

Question: What about the Cr (Rattus norvegicus [2]) of the same molecule?
Answer: 3.29 mg/dL

Question: And the Cr (Rattus norvegicus [3])?
Answer: 3.97 mg/dL

Question: What about the Na (Rattus norvegicus [4]) of the same molecule?
Answer: 0.25 m equiv 6hr-1 100g-1

Question: What about the T/C (Rattus norvegicus [5]) of the same molecule?
Answer: 1.68

Question: What about the T/C (Rattus norvegicus [6]) of the same molecule?
Answer: 2.08

Question: And the UN (Rattus norvegicus [7])?
Answer: 122 mg/dL

Question: And the UN (Rattus norvegicus [8])?
Answer: 110.7 mg/dL

Question: And the Na (Rattus norvegicus [9])?
Answer: 0.212 m equiv 6hr-1 100g-1

Question: And the “Na+/K+” value (Rattus norvegicus [10])?
Answer: 1.09

Question: What about the “Na+/K+” value (Rattus norvegicus [11]) of the same molecule?
Answer: 2.13

Question: What about the “Na+/K+” value (Rattus norvegicus [12]) of the same molecule?
Answer: 1.37

Question: And the T/C (Rattus norvegicus [13])?
Answer: 1.11

Question: And the T/C (Rattus norvegicus [14])?
Answer: 1.4

Question: What about the T/C (Rattus norvegicus [15]) of the same molecule?
Answer: 1.99

Question: What about the T/C (Rattus norvegicus [16]) of the same molecule?
Answer: 1

Question: What about the Na (Rattus norvegicus [17]) of the same molecule?
Answer: 0.345 m equiv 6hr-1 100g-1

Question: What about the Urine volume (Rattus norvegicus [18]) of the same molecule?
Answer: 1.93 ml 6hr-1 100g-1

Question: And the Urine volume (Rattus norvegicus [19])?
Answer: 1.15 ml 6hr-1 100g-1

Question: And the Urine volume (Rattus norvegicus [20])?
Answer: 1.26 ml 6hr-1 100g-1

Question: What about the UN (Rattus norvegicus [21]) of the same molecule?
Answer: 150.7 mg/dL

Question: And the Ki (Adenosine A2 receptor)?
Answer: 410 nM
